In ChEMBL document CHEMBL1153815, “Mapping the ribonucleolytic active site of bovine seminal ribonuclease. The binding of pyrimidinyl phosphonucleotide inhibitors” (Eur J Med Chem, 2009):
Active and inactive are the calls of the source. The calls are words filed in the database; no cut-off is given here.

Assays:
Ribonuclease pancreatic = molecular target: T1, Ribonuclease pancreatic (Bos taurus, UniProt P61823); experiment: Inhibition of bovine pancreatic ribonuclease A assessed as enzyme activity by spectrophotometric method pH 6
T1 sequence (P61823 whole entry): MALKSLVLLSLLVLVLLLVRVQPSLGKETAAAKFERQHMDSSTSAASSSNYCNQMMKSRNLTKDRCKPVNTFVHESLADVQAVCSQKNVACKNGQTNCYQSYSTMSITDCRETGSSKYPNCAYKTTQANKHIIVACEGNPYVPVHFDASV

Mus musculus [1] = experiment: Inhibition of aspermatogenic activity of bovine seminal ribonuclease in mouse ICR assessed as width of spermatogenic layer at 1:1 ratio of BS-Rnase+compound after 10 days administered once into left testes; format: functional, organism-based
Mus musculus [2] = experiment: Inhibition of aspermatogenic activity of bovine seminal ribonuclease in mouse ICR assessed as diameter of somniferous tubule at 1:100 ratio of BS-Rnase+compound after 10 days administered once into left testes; format: functional, organism-based
Mus musculus [3] = experiment: Inhibition of aspermatogenic activity of bovine seminal ribonuclease in mouse ICR assessed as weight of the testes at 1:100 ratio of BS-Rnase+compound after 10 days administered once into left testes; format: functional, organism-based; settings: Testis
Mus musculus [4] = experiment: Inhibition of aspermatogenic activity of bovine seminal ribonuclease in mouse ICR assessed as width of spermatogenic layer at 1:100 ratio of BS-Rnase+compound after 10 days administered once into left testes; format: functional, organism-based
Mus musculus [5] = experiment: Inhibition of aspermatogenic activity of bovine seminal ribonuclease in mouse ICR assessed as diameter of somniferous tubule at 1:1 ratio of BS-Rnase+compound after 10 days administered once into left testes; format: functional, organism-based
Mus musculus [6] = experiment: Inhibition of aspermatogenic activity of bovine seminal ribonuclease in mouse ICR assessed as weight of the testes at 1:1 ratio of BS-Rnase+compound after 10 days administered once into left testes; format: functional, organism-based; settings: Testis
Mus musculus [7] = experiment: Inhibition of aspermatogenic activity of bovine […] assessed as width of spermatogenic layer at 1:100 ratio of BS-Rnase+compound after 10 days administered once into left testes; format: functional, organism-based
Mus musculus [8] = experiment: Inhibition of aspermatogenic activity of bovine […] assessed as weight of the testes at 1:1 ratio of BS-Rnase+compound after 10 days administered once into left testes; format: functional, organism-based; settings: Testis
Mus musculus [9] = experiment: Inhibition of aspermatogenic activity of bovine […] assessed as diameter of somniferous tubule at 1:100 ratio of BS-Rnase+compound after 10 days administered once into left testes; format: functional, organism-based
Seminal ribonuclease = molecular target: T2, Seminal ribonuclease (Bos taurus, UniProt P00669); experiment: Inhibition of bovine seminal ribonuclease assessed as enzyme activity by spectrophotometric method at pH 6
T2 sequence (P00669 whole entry): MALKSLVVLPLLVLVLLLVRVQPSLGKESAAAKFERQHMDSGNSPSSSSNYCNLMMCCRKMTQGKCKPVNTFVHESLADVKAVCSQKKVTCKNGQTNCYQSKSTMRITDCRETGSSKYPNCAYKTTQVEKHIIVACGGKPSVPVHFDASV

| Ki (Ribonuclease pancreatic) | Activity (Mus musculus [2]) | Activity (Mus musculus [3]) | Activity (Mus musculus [4]) | SMILES | also measured |
| --- | --- | --- | --- | --- | --- |
| 11.6 µM |  |  |  | O=c1ccn([C@@H]2O[C@H](CO)[C@@H](O)[C@H]2OP(=O)(O)O)c(=O)[nH]1 |  |
| 20.1 µM | inactive | inactive | inactive | Nc1ccn([C@@H]2O[C@H](CO)[C@@H](OP(=O)(O)O)[C@H]2O)c(=O)n1 | Activity (Mus musculus [1]): Active; Activity (Mus musculus [5]): Active; Activity (Mus musculus [6]): Active |
| 78.5 µM |  |  |  | O=c1ccn([C@@H]2O[C@H](CO)[C@@H](OP(=O)(O)O)[C@H]2O)c(=O)[nH]1 |  |
| 647 µM |  |  |  | O=c1ccn([C@@H]2O[C@H](COP(=O)(O)OP(=O)(O)O)[C@@H](O)[C@H]2O)c(=O)[nH]1 [URIDINE_DIPHOSPHATE] |  |
| 844 µM | inactive | inactive | inactive | Nc1ccn([C@@H]2O[C@H](COP(=O)(O)O)[C@@H](O)[C@H]2O)c(=O)n1 | Activity (Mus musculus [7]): Active; Activity (Mus musculus [8]): Active; Activity (Mus musculus [9]): Active; Ki (Seminal ribonuclease): 1560 µM |
